Assays:
human F1Fo-ATPase = biological target: T1, human F1Fo-ATPase (Homo sapiens, UniProt P06576); experiment: F1-ATPase activity assay (NADH-coupled, purified enzyme); format: biochemical; settings: 1 μM
T1 construct: Human F1Fo-ATPase was purified from HepG2 cells by immunocapture; endogenous in cells; host or cells: HepG2 cells; complex isolated by immunocapture with anti-ATP synthase antibody 12F4AD8AF8 (#ab109867, Abcam)
Source text: The mature human IF1 protein (SEQ ID NO: 5) was chemically synthesized by GenScript (Piscataway, N.J., USA) at >80% purity. The peptides derived from the mature human IF1 sequence (IF1-1-60, IF1-10-56, IF1-10-47) were produced by BachemAG (Bubendorf, Switzerland) with >90% purity.
Human F1Fo-ATPase was purified from HepG2 cells by immunocapture using mouse monoclonal anti-ATP synthase antibody (12F4AD8AF8, #ab109867, Abcam) according to manufacturer's instructions.
Measurement of F1-ATPase activity was assayed as previously described. Briefly, 10 μg of F1Fo-ATPase was prepared into 50 μL of activity assay buffer (10 mM HEPES, 150 mM NaCl, 5 mM KCl, 5 mM MgCl2, 0.5 mM phosphoenolpyruvate, 250 μM NADH, 100 μM ATP, 20 U lactate dehydrogenase, 120 U pyruvate kinase). The mixture was incubated at 37° C. for 30 min. Then the F1-ATPase activity was measured in a 96-well microplate by adding 5 μL of the mixture (1 μg of F1Fo-ATPase per point) per well to 200 μL of activity assay buffer at 37° C., and by adding 5 μL of buffer with or without peptide (1 μM each). The reduction in the absorbance of NADH was measured at 340 nm for 5 min with a Varioskan™ Flash Multimode Reader (Thermo Fisher Scientific). A slope was calculated for each well and the results expressed as a percentage of the control slope.

HepG2 cells = experiment: HDL endocytosis assay in hepatocytes; format: cell-based, human; settings: for effect on HDL endocytosis: 1 μM, HDL-Alexa568 50 μg/mL, 25 min, abolished by IF1 1 μM
Experimental: HepG2 cells were seeded on 96-well plates at 50,000 cells/well. HDL3 (d 1.12-1.21) were isolated from plasma of healthy human donors and referred to as HDL. HDL was fluorescently labeled with AlexaFluor®568 dye (A10238, Thermofisher Scientific) according the instructions of manufacturer. 1 h30 before the assay, the cells were serum starved for 1 h30 in order to stabilize nucleotide secretion. Cells were incubated with inhibitors (H49K, 1 μM) for 10 min before treatment with the different peptides (1 μM) or apoA-I (10 μg/ml) purified from human plasma. 5 min after peptide treatment, endocytosis was initiated by 50 μg/mL of AlexaFluor568®-labelled HDL. The same experiment was performed with a […] excess of unlabelled HDL (2.5 mg/mL) to determine the nonspecific fluorescence signal. After 25 min at 37° C., cells were then washed in serum-free DMEM and extracellular membrane-bound HDL was disassociated by incubating cells at 4° C. in serum-free DMEM for 90 min. Following washes, cells were lysate in NaOH 0.1M SDS 1% during 2 h, lysates were transferred in a black 96-wells plate and fluorescence was recorded at 568 nm (Varioscan flash). Fluorescence for each condition was substrate with the value obtained in unlabelled HDL condition, and results were expressed as the fold change as compared with the basal condition (untreated cells).

[1] = biological target: T2, ecto-F1-ATPase (HepG2 cells) (Homo sapiens, UniProt P06576); experiment: ecto-F1-ATPase activity: extracellular ADP content, luciferin-luciferase assay; format: cell-based; settings: HepG2, 5 min, apoA-I 10 μg/mL; effect blunted by IF1
T2 construct: host or cells: HepG2
Experimental: The human hepatocyte cell line HepG2 was obtained from the American Type Culture Collection (#HB-8065). HepG2 were cultured in Dulbecco's Modified Eagle's Medium (DMEM)—high glucose (D0822, Sigma-Aldrich) supplemented with 10% fetal bovine serum (10270098, Life technologies), 1% Penicillin-Streptomycin solution (P0781, Sigma-Aldrich). HepG2 cells were seeded on 24-well plates at 75,000 cells/well (Day 0). After 24 hours of growing, cells were serum starved for 24 h in order to synchronize cell cycles (Day 1) and then replaced additional 24 h in complete cell growth medium (Day 2). On day 3, cells were washed and equilibrated in fresh DMEM—high glucose without red phenol for 1 h (D1145, Sigma-Aldrich).
The cells were then treated 5 min with different concentration of peptide of formula (I) (0.1 to 5 μM), the peptide of formula (II) (1 μM), SCR (1 μM), SCR-K-16 (1 μM) or apoA-I (10 μg/mL) purified from human plasma.
Specific ecto-F1-ATPase activation was assessed in the presence of IF1 protein (1 μM), a natural inhibitor of F1-ATPase that interacts with the β-subunit to inhibit the ATP hydrolysis activity [5].
Supernatants were then collected and centrifuged (10,000 g, 5 min, 4° C.) and processed for ADP and ATP measurement. For ADP measurement, ADP was converted into ATP in 150 mM NaCl, 5 mM KCl, 2 mM MgCl2, pH 7.5 buffer containing 0.5 mM phosphoenolpyruvate (PEP) and pyruvate kinase (PK, 6 U per point for 15 min at 37° C.). For ATP measurement, 100 μl of sample was analyzed using the ATP bioluminescence assay kit CLS II (Roche Diagnostics). Samples were added to the ATP assay mixture and luminescence was measured in a microplate reader Infinite F500 (Tecan, Switzerland) for 1000 ms. The ATP standard curve was produced in the same medium as the samples and in the 10^−5 to 10^−10 M concentration range. The ADP concentration was then calculated as the ATP concentration following ADP conversion minus the basal ATP concentration. Data are expressed as nanomoles of ADP produced.

HUVEC cells = experiment: Endothelial nitric oxide (NO) production, DAF-FM-DA probe; format: cell-based, human; settings: apoA-I; abolished by IF1
Experimental: Nitric oxide (NO) was detected using a DAF-FM-DA probe (D2321, Sigma-Aldrich) which forms fluorescent benzotriazole when it reacts with NO. HUVEC cells (PromoCell #C-12203) were seeded in 96-well plates (10,000 cells per well) and cultured in endothelial cell basal medium 2 (PromoCell #C-22211) supplemented with GM2 supplement Mix (PromoCell #C-39211), until 80-90% confluence. The medium was then replaced with M-199 without serum for 4 h, and the cells were incubated for 45 min with DAF-FM-DA (5 μM) diluted in PBS. Cells were treated with increasing concentrations of the different peptides or apoA-I (10 μM) purified from human plasma or histamine (1 mM) as positive control. In another set of experiments, cells were incubated with inhibitors (IF1, 1 μM) for 10 min before treatment with peptides or apoA-I. The fluorescence was recorded for 30 min (λex=495 nm, λem=515 nm) with a Tecan Flash Multimode Reader (Thermo Fisher Scientific). Fluorescence for each condition was compared with the value obtained in untreated cells, and results were expressed as the fold change as compared with the basal condition (untreated cells).

## CH3CO-[SEQ ID NO: 2]-K-[palmitoyl]-NH2 (Ac-GEAKSYAEKGEARGERGTKGEFRIFKREATD-{K(palmitoyl)-NH2}) [SCR-K-C16, palmitoylated scramble peptide, negative control, reference compound]
Human F1Fo-ATPase
  stimulation of F1-ATPase activity: no effect
HepG2 cells
  effect on HDL endocytosis: no effect

## CH3CO-[SEQ ID NO: 2]-NH2 (Ac-GEAKSYAEKGEARGERGTKGEFRIFKREATD-NH2) [SCR, reference compound]
Human F1Fo-ATPase
  stimulation of F1-ATPase activity: no effect
HepG2 cells
  effect on HDL endocytosis: no effect

## apoA-I: Apolipoprotein A-I purified from human plasma, known F1-ATPase activator, positive control [reference compound]
[1]
  extracellular ADP concentration: increased
HepG2 cells; apoA-I 10 μg/mL, abolished by IF1
  stimulation of HDL endocytosis compared to non-stimulated cells: about 45%
HUVEC cells
  NO production by endothelial cells: stimulated
